# Source: US20230398130A1, “METHODS AND COMPOSITIONS FOR DIFFERENTIATING STEM CELLS” (Massachusetts Institute of Technology, priority 2020, published 2023)
# Structures can show the parent of a compound that is named as a salt.
# Tested on: ISC-enriched organoids
# Test: Primary screen, 384-well 2.5-D organoid differentiation (ENR+CD, 6 days, Target Selective Inhibitor Library, vs whole-plate median): ATP (CellTiter-Glo 3D, CTG)
# [1] = Dose 0.08 uM, standard z score of FC
# [2] = Dose 0.40 uM, standard z score of FC
# [3] = Dose 2.00 uM, standard z score of FC
# [4] = Dose 10.00 uM, standard z score of FC
# [5] = primary screen, dose 0.08 uM, standard z score of FC
# [6] = primary screen, dose 0.40 uM, standard z score of FC
# [7] = primary screen, dose 2.00 uM, standard z score of FC
# [8] = primary screen, dose 10.00 uM, standard z score of FC
smiles,measurement,setting,value
NC(=O)N1c2ccccc2CC(=O)c2ccccc21 [Oxcarbazepine],Z.CTG,[1],−0.051
same,Z.CTG,[2],−0.247
same,Z.CTG,[3],−0.197
same,Z.CTG,[4],−0.359
C#CCC(Cc1cnc2nc(N)nc(N)c2n1)c1ccc(C(=O)N[C@@H](CCC(=O)O)C(=O)O)cc1 (some centres unmarked) [Pralatrexate],Z.CTG (standard z score),"Dose 0.08 uM, primary screen",−1.551
same,Z.CTG (standard z score),"Dose 0.40 uM, primary screen",−2.036
same,Z.CTG (standard z score),"Dose 2.00 uM, primary screen",−1.626
same,Z.CTG (standard z score),"Dose 10.00 uM, primary screen",−2.201
COc1c(O)cc2c(c1O)[C@@H]1O[C@H](CO)[C@@H](O)[C@H](O)[C@H]1OC2=O [Bergenin],Z.CTG,[5],0.687
same,Z.CTG,[6],0.585
same,Z.CTG,[7],0.491
same,Z.CTG,[8],0.821
CC[C@H](NC(=O)[C@H](C)NC)C(=O)N1C[C@@H](O)C[C@H]1Cc1c(-c2[nH]c3cc(F)ccc3c2C[C@@H]2C[C@H](O)CN2C(=O)[C@H](CC)NC(=O)[C@H](C)NC)[nH]c2cc(F)ccc12 [Birinapant],Z.CTG,[5],−0.615
same,Z.CTG,[6],0.226
same,Z.CTG,[7],0.542
same,Z.CTG,[8],0.293
COC(=O)C1=C(C#N)NC(C)=C(C(=O)OC(C)C)C1c1cccc([N+](=O)[O-])c1 (centres unmarked) [Nilvadipine],Z.CTG,[1],0.493
same,Z.CTG,[2],0.324
same,Z.CTG,[3],0.506
same,Z.CTG,[4],0.460
CC(=O)O[C@]1(C(C)=O)CC[C@H]2[C@@H]3C=C(Cl)C4=CC(=O)[C@@H]5C[C@@H]5[C@]4(C)[C@H]3CC[C@@]21C [Cyproterone Acetate],Z.CTG,[1],−0.263
same,Z.CTG,[2],0.122
same,Z.CTG,[3],−0.341
same,Z.CTG,[4],−0.414
C[C@@H](O[C@H]1OCCN(Cc2n[nH]c(=O)[nH]2)[C@H]1c1ccc(F)cc1)c1cc(C(F)(F)F)cc(C(F)(F)F)c1 [Aprepitant],Z.CTG,[5],0.747
same,Z.CTG,[6],0.962
same,Z.CTG,[7],0.346
same,Z.CTG,[8],0.121
COCCOc1ccc2c(c1)ncn2-c1ccc2cccc(N3CCC(N)CC3)c2n1 [CP-673451],Z.CTG,[1],0.166
same,Z.CTG,[2],0.445
same,Z.CTG,[3],0.018
same,Z.CTG,[4],−0.616
Oc1c2ccccc2c2c3c(cccc13)N=N2 [SP600125],Z.CTG (standard z score),"Dose 0.08 uM, primary screen",0.471
same,Z.CTG (standard z score),"Dose 0.40 uM, primary screen",0.347
same,Z.CTG (standard z score),"Dose 2.00 uM, primary screen",0.246
same,Z.CTG (standard z score),"Dose 10.00 uM, primary screen",−0.047
CN1CC(=O)N2[C@H](c3ccc4c(c3)OCO4)c3[nH]c4ccccc4c3C[C@@H]2C1=O [Tadalafil],Z.CTG (standard z score),"Dose 0.08 uM, primary screen",−0.046
same,Z.CTG (standard z score),"Dose 0.40 uM, primary screen",0.863
same,Z.CTG (standard z score),"Dose 2.00 uM, primary screen",1.042
same,Z.CTG (standard z score),"Dose 10.00 uM, primary screen",0.644
COc1cc(N2CCC(N3CCN(C)CC3)CC2)ccc1Nc1ncc(Cl)c(Nc2ccccc2P(C)(C)=O)n1 [AP26113],Z.CTG,[5],−0.130
same,Z.CTG,[6],0.145
same,Z.CTG,[7],−1.333
same,Z.CTG,[8],−4.012
COc1ccc2cccc(CCNC(C)=O)c2c1 [Agomelatine],Z.CTG,[5],0.252
same,Z.CTG,[6],0.193
same,Z.CTG,[7],−0.472
same,Z.CTG,[8],0.056
C[C@@H](NCCCc1cccc(C(F)(F)F)c1)c1cccc2ccccc12 [Cinacalcet HCl],Z.CTG,[1],−1.061
same,Z.CTG,[2],−0.712
same,Z.CTG,[3],−0.028
same,Z.CTG,[4],−1.076
CCOC(=O)C1=C(COCCN)NC(C)=C(C(=O)OC)C1c1ccccc1Cl (centres unmarked) [Amlodipine],Z.CTG,[5],−0.837
same,Z.CTG,[6],−0.866
same,Z.CTG,[7],−0.888
same,Z.CTG,[8],−1.006
O=S(=O)(c1ccccc1)N(CC(F)(F)F)c1ccc(C(O)(C(F)(F)F)C(F)(F)F)cc1 [T0901317],Z.CTG (standard z score),"Dose 0.08 uM, primary screen",0.112
same,Z.CTG (standard z score),"Dose 0.40 uM, primary screen",0.426
same,Z.CTG (standard z score),"Dose 2.00 uM, primary screen",0.228
same,Z.CTG (standard z score),"Dose 10.00 uM, primary screen",0.272
Oc1nc(-c2ccc(C(F)(F)F)cc2)nc2c1CSCC2 [XAV-939],Z.CTG (standard z score),dose 0.08 uM,−0.792
same,Z.CTG (standard z score),dose 0.40 uM,−0.065
same,Z.CTG (standard z score),dose 2.00 uM,−0.847
same,Z.CTG (standard z score),dose 10.00 uM,−2.147
CCN(c1cc(-c2ccc(CN3CCOCC3)cc2)cc(C(=O)NCc2c(C)cc(C)[nH]c2=O)c1C)C1CCOCC1 [EPZ-6438],Z.CTG,[1],0.107
same,Z.CTG,[2],0.178
same,Z.CTG,[3],−0.163
same,Z.CTG,[4],0.802
NC(=O)c1ncn([C@@H]2O[C@H](CO)[C@@H](O)[C@H]2O)c1N [Acadesine],Z.CTG,[5],0.225
same,Z.CTG,[6],0.413
same,Z.CTG,[7],−0.012
same,Z.CTG,[8],0.182
CCO[C@@H]1OC(=O)C[C@@H]1NC(=O)[C@@H]1CCCN1C(=O)[C@@H](NC(=O)c1ccc(N)c(Cl)c1)C(C)(C)C [VX-765],Z.CTG (standard z score),dose 0.08 uM,0.368
same,Z.CTG (standard z score),dose 0.40 uM,0.555
same,Z.CTG (standard z score),dose 2.00 uM,0.393
same,Z.CTG (standard z score),dose 10.00 uM,0.608
OC(CNCC(O)C1CCc2cc(F)ccc2O1)C1CCc2cc(F)ccc2O1 (centres unmarked) [Nebivolol],Z.CTG,[1],0.926
same,Z.CTG,[2],0.526
same,Z.CTG,[3],0.746
same,Z.CTG,[4],0.499
CCc1nc(N)nc(N)c1-c1ccc(Cl)cc1 [Pyrimethamine],Z.CTG (standard z score),"Dose 0.08 uM, primary screen",0.016
same,Z.CTG (standard z score),"Dose 0.40 uM, primary screen",−0.618
same,Z.CTG (standard z score),"Dose 2.00 uM, primary screen",−0.994
same,Z.CTG (standard z score),"Dose 10.00 uM, primary screen",−1.480
CCc1cccc2c3c([nH]c12)C(CC)(CC(=O)O)OCC3 (centres unmarked) [Etodolac],Z.CTG,[1],−0.147
same,Z.CTG,[2],0.117
same,Z.CTG,[3],0.020
same,Z.CTG,[4],0.054
Cc1c(C(=O)NN2CCCCC2)nn(-c2ccc(Cl)cc2Cl)c1-c1ccc(Cl)cc1 [Rimonabant],Z.CTG (standard z score),"Dose 0.08 uM, primary screen",0.611
same,Z.CTG (standard z score),"Dose 0.40 uM, primary screen",0.492
same,Z.CTG (standard z score),"Dose 2.00 uM, primary screen",0.561
same,Z.CTG (standard z score),"Dose 10.00 uM, primary screen",0.152
Cc1c(Cl)cccc1Nc1ccccc1C(=O)O [Tolfenamic Acid],Z.CTG (standard z score),dose 0.08 uM,0.467
same,Z.CTG (standard z score),dose 0.40 uM,−0.007
same,Z.CTG (standard z score),dose 2.00 uM,−0.379
same,Z.CTG (standard z score),dose 10.00 uM,−0.276
O=c1ncccn1[C@@H]1O[C@H](CO)[C@@H](O)[C@H]1O [Zebularine],Z.CTG (standard z score),dose 0.08 uM,0.085
same,Z.CTG (standard z score),dose 0.40 uM,0.000
same,Z.CTG (standard z score),dose 2.00 uM,−0.213
same,Z.CTG (standard z score),dose 10.00 uM,−0.399
CNCc1ccc(-c2cc(-c3nc(-c4ccc(S(=O)(=O)C(C)C)cc4)cnc3N)on2)cc1 [VE-822],Z.CTG (standard z score),dose 0.08 uM,−0.351
same,Z.CTG (standard z score),dose 0.40 uM,−0.685
same,Z.CTG (standard z score),dose 2.00 uM,−1.713
same,Z.CTG (standard z score),dose 10.00 uM,−4.212
C=C1C(=O)O[C@@H]2/C=C(\C)CC/C=C(\C)CC[C@@H]12 [Costunolide],Z.CTG,[1],−0.070
same,Z.CTG,[2],0.288
same,Z.CTG,[3],0.120
same,Z.CTG,[4],0.019
Nc1cccc2c1C(=O)N(C1CCC(=O)NC1=O)C2=O (centres unmarked) [Pomalidomide],Z.CTG,[1],0.150
same,Z.CTG,[2],0.536
same,Z.CTG,[3],−0.517
same,Z.CTG,[4],−0.729
COc1ccc2cc([C@H](C)C(=O)O)ccc2c1 [Naproxen],Z.CTG,[1],−0.233
same,Z.CTG,[2],−0.162
same,Z.CTG,[3],−1.405
same,Z.CTG,[4],−3.063
O=C(N/N=C/c1ccc(O)c(O)c1)c1cc2ccccc2cc1O [Dynasore],Z.CTG,[1],−0.592
same,Z.CTG,[2],−0.604
same,Z.CTG,[3],−0.364
same,Z.CTG,[4],−0.026
Cc1cc(OCc2nnc(SC3CCCC3)n2-c2cccnc2)ccc1-c1ccc(S(C)(=O)=O)cc1 [NMS-873],Z.CTG,[1],0.416
same,Z.CTG,[2],−0.122
same,Z.CTG,[3],−2.173
same,Z.CTG,[4],−3.683
C[C@]12CC[C@@H]3c4ccc(O)cc4C[C@@H](CCCCCCCCC[S+]([O-])CCCC(F)(F)C(F)(F)F)[C@H]3[C@@H]1CC[C@@H]2O (some centres unmarked) [Fulvestrant],Z.CTG,[1],0.285
same,Z.CTG,[2],−0.150
same,Z.CTG,[3],0.339
same,Z.CTG,[4],−0.488
CC(=O)Nc1nc2c(Oc3cc(-c4ccc(C(F)(F)F)cc4)ncn3)cccc2s1 [AMG-517],Z.CTG,[5],0.385
same,Z.CTG,[6],0.269
same,Z.CTG,[7],0.268
same,Z.CTG,[8],0.135
CCCc1nc2c(C)cc(-c3nc4ccccc4n3C)cc2n1Cc1ccc(-c2ccccc2C(=O)O)cc1 [Telmisartan],Z.CTG (standard z score),"Dose 0.08 uM, primary screen",0.320
same,Z.CTG (standard z score),"Dose 0.40 uM, primary screen",0.584
same,Z.CTG (standard z score),"Dose 2.00 uM, primary screen",0.153
same,Z.CTG (standard z score),"Dose 10.00 uM, primary screen",0.549
O=C(/C=C/c1ccc(O)c(O)c1)OCCc1ccccc1 [Caffeic Acid Phenethyl Ester],Z.CTG,[1],0.627
same,Z.CTG,[2],−0.026
same,Z.CTG,[3],−0.152
same,Z.CTG,[4],−1.221
CC(C)OC(=O)OCOP(=O)(CO[C@H](C)Cn1cnc2c(N)ncnc21)OCOC(=O)OC(C)C [Tenofovir Disoproxil Fumarate],Z.CTG (standard z score),dose 0.08 uM,0.172
same,Z.CTG (standard z score),dose 0.40 uM,−0.004
same,Z.CTG (standard z score),dose 2.00 uM,−0.378
same,Z.CTG (standard z score),dose 10.00 uM,−1.034
CCN(CC)C(=O)/C(C#N)=C/c1cc(O)c(O)c([N+](=O)[O-])c1 [Entacapone],Z.CTG,[1],−0.275
same,Z.CTG,[2],−0.154
same,Z.CTG,[3],0.493
same,Z.CTG,[4],−0.935
COc1ccc(-n2nc(C(N)=O)c3c2C(=O)N(c2ccc(N4CCCCC4=O)cc2)CC3)cc1 [Apixaban],Z.CTG,[5],−0.212
same,Z.CTG,[6],0.266
same,Z.CTG,[7],−0.144
same,Z.CTG,[8],−0.185
COc1ccccc1Oc1c(NS(=O)(=O)c2ccc(C(C)(C)C)cc2)nc(-c2ncccn2)nc1OCCO [Bosentan Hydrate],Z.CTG,[5],0.487
same,Z.CTG,[6],0.495
same,Z.CTG,[7],0.288
same,Z.CTG,[8],0.204
c1ccc(CC2=NCCN2)cc1 [Tolazoline HCl],Z.CTG (standard z score),dose 0.08 uM,0.585
same,Z.CTG (standard z score),dose 0.40 uM,0.530
same,Z.CTG (standard z score),dose 2.00 uM,−0.122
same,Z.CTG (standard z score),dose 10.00 uM,−0.496
CN1C2CCCC1CC(NC(=O)c1nn(C)c3ccccc13)C2 (centres unmarked) [Granisetron HCl],Z.CTG,"Dose 0.08 uM, primary screen, standard z score",−0.512
same,Z.CTG,"Dose 0.40 uM, primary screen, standard z score",−0.205
same,Z.CTG,"Dose 2.00 uM, primary screen, standard z score",−0.426
same,Z.CTG,"Dose 10.00 uM, primary screen, standard z score",−0.710
